The target of one assay is poly(dGdC). The assay can be described thus: ethidium displacement assay, poly(dGdC). The class given is binding. The conditions noted are these: poly(dGdC); ± 0.02 × 10^5 M^-1; pH 7.4. The source says:
The ethidium displacement assay is based on the fact that ethidium binding to DNA causes a large (approximately 25 fold) florescence enhancement as a result of the hydrophobic environment surrounding the ethidium molecule. Displacement of ethidium results in decreased fluorescence, and thus binding constants of drugs to DNA can be estimated and compared by measuring the loss of fluorescence as a function of added drug. The drug concentration which produces 50% inhibition of florescence is approximately inversely proportional to the apparent binding constant.
The relative DNA binding constants (Kapp) of distamycin and Compounds 6-10 to calf thymus DNA, T4 coliphage DNA, poly(dAdT) and poly(dGdC) were determined using the ethidium displacement assay (Morgan et al., 1979). The Kapp of ethidium bromide (Debart et al., 1989) is included for comparison. 25 μL of a 2A260 DNA solution was added to 2 mL of ethidium bromide buffer (250 μL of 1.3 mM ethidium bromidestock, 314.9 mg Tris-HCl, 60.8 mg Tris base and 930/mg of Na2 EDTA.2H2 O in 250 ml H2 O) pH 7.4 and the maximum fluorescence was measured (excitation wavelength=546 nm, emission wavelength=600 nm) at ambient temperature.
DNA solutions of 2A260 were prepared as follows: T4 coliphage DNA: 10 units of DNA were dissolved in 1 mL of 10 mM sodium phosphate (pH 7.1) and 0.25 mM EDTA buffer to give a 10A260 solution. 0.3 mL of the stock solution were diluted to 1.5 mL with 10 mM sodium phosphate (pH 7.1) and 0.25 mM EDTA buffer to give a 2A260 solution. Calf thymus DNA: 100 units of DNA were dissolved in 5 mL of 10 mM sodium phosphate (pH 7.1) and 0.25 mM EDTA buffer to give a 20A260 solution. 1.5 mL of the stock solution were diluted to 15 mL with 10 mM sodium phosphate (pH 7.1) and 0.25 mM EDTA buffer to give a 2A260 solution. Poly(dA-dT) and Poly(dG-dC) DNA: 100 units of DNA were dissolved in 10 mL of 10 mM sodium phosphate pH 7.1) and 0.25 mM EDTA buffer to give a 10A260 solution. 3 mL of the stock solution were diluted to 15 mL with 10 mM sodium phosphate (pH 7.1) and 0.25 mM EDTA buffer to give a 2A260 solution.
Aliquots of 10 mM stock drug solution (1 mg of drug to be tested was dissolved with 1 mole equivalent of 0.1M HCl, and then diluted with appropriate volume of distilled water to make a 10 mM solution) were then added to the fluorescing solution and the florescence measured after each addition until a 50% reduction of fluorescence occurred. If the 10 mM stock solution lowered the % fluorescence too quickly, the stock solution was further diluted to 1 mM prior to titration. The apparent binding constant was then calculated from this equation: KEtBr [EtBr]=Kapp [drug], where [drug]=the concentration of drug at a 50% reduction of fluorescence and KEtBr [1×10^7 M^-1 for calf thymus and coliphage T4 DNA^18, 9.5×10^6 M^-1 for poly(dA.dT)^30, and 9.9×10^6 M^-1 for poly(dG.dC)^30 ] and [EtBr] were known. The concentration of ethidium bromide was 1.3 μM. The Kapp values are shown in Table I. In a separate experiment, the Kapp of Compound 5 for calf thymus DNA and poly[dGdC] were determined to be 0.3×10^5 M^-1 and 2.6×10^5 M^-1, respectively. The error in these measurements is ±[…].

A further assay deals with KM12. The assay is described as follows: NCI cytotoxicity screen (SRB). Format: cell-based, human. The method, then:
(§1) Compounds 6, 7, 9 and 10 were tested for cytotoxic properties by the National Cancer Institute, Bethesda, Md. The anticancer drug screen utilized a panel of 60 human tumor cell lines organized into subpanels representing leukemia, melanoma, and cancers of the lung, colon, kidney, ovary and central nervous system and is described by Monks et al. (1991) Journal of the National Cancer Institute 83, 757, which is incorporated herein by reference.
(§2) Cell lines were inoculated onto microtiter plates and preincubated for 24-28 hours. 100 μL aliquots of each compound were added to the appropriate microtiter plate wells in each of five 10-fold dilutions starting from a maximum concentration of 10^-4 M in water or DMSO. Cultures were then incubated for an additional 48 hours. Cells were then fixed in situ, followed by staining with sulforhodamine B (SRB), which binds to basic amino acids of cellular macromolecules. The solubilized stain was measured spectrophotometrically to determine relative cell growth or viability in treated and untreated cells. The monoimidazole analogs of Compounds 6, 7, 9 and 10 and the formamido analog corresponding to Compounds 7 and 10 are devoid of activity against the panel of cancer cell lines in Table III.

For another assay, the system named is U251. The assay can be described thus: NCI cytotoxicity screen (SRB). The class given is cell-based, human. The method, then:
as §1, §2

In another assay the test system is EKVX. The assay is described as follows: NCI cytotoxicity screen (SRB). Format: cell-based, human. The method, then: as §1, §2
A further assay deals with XF498. The assay can be described thus: NCI cytotoxicity screen (SRB). The class given is cell-based, human. Here is the method:
as §1, §2

The subject of another assay is SF-539. The assay can be described thus: NCI cytotoxicity screen (SRB). Format: cell-based, human. The method, then:
as §1, §2

Where [1] appears, read: 48 h, Non-Small Cell Lung Cancer EKVX.

The IC50 is the concentration that inhibits the measured activity by half. `CN(C)CCNC(=O)c1nc(NC(=O)c2nc(NC(=O)c3nc(NC(=O)CCCc4ccc(N(CCCl)CCCl)cc4)cn3C)cn2C)cn1C` [Compound 10, N-(N',N'-dimethylaminoethyl)-1-methyl-4-{1-methyl-4-[4-(4,4-bis(2-chloroethyl)aminophenyl-1-butanamido)-1-methylimidazole-2-carboxamido]imidazole-2-carboxamido}imidazole-2-carboxamide]: the “Association constant Kapp” value on poly(dGdC) was 16000 M⁻¹. Besides, the IC50 in the assay with KM12 (48 h, Colon Cancer KM12) was 24.1 µM; in the assay on U251 (48 h, CNS Cancer U251) it was 5.27 µM; with EKVX (setting [1]), 87.8 µM; with XF498 (48 h, CNS Cancer XF498), 5.79 µM; with SF-539 (48 h, CNS Cancer SF-539) it was 6.13 µM.
For `CN(C)CCNC(=O)c1nc(NC(=O)c2nc(NC(=O)CCCc3ccc(N(CCCl)CCCl)cc3)cn2C)cn1C` [Compound 9, N-(N',N'-dimethylaminoethyl)-1-methyl-4-{4-[4,4-bis(2-chloroethyl)aminophenyl-1-butanamido]-1-methylimidazole-2-carboxamido}imidazole-2-carboxamide], the “Association constant Kapp” value on poly(dGdC) came to 76000 M⁻¹. Moreover, the half-maximal inhibitory concentration (IC50) came to 60.9 µM in the assay on KM12 (48 h, Colon Cancer KM12); 46.2 µM in the assay on U251 (48 h, CNS Cancer U251); 47.9 µM with SF-539 (48 h, CNS Cancer SF-539).
Consider `CN(C)CCNC(=O)c1nc(NC(=O)c2nc(NC(=O)c3nc(NCc4ccc(N(CCCl)CCCl)cc4)cn3C)cn2C)cn1C` [Compound 8, N-(N',N'-dimethylaminoethyl)-1-methyl-4-{1-methyl-4-[4-(4,4-bis-(2-chloroethyl)aminobenzylamino)-1-methylimidazole-2-carboxamido]imidazole-2-carboxamido}imidazole-2-carboxamide], for which the “Association constant Kapp” value at poly(dGdC) stood at 339000 M⁻¹.
On to `CN(C)CCNC(=O)c1nc(NC(=O)c2nc(NC(=O)c3nc(NC(=O)c4ccc(N(CCCl)CCCl)cc4)cn3C)cn2C)cn1C` [Compound 7, N-(N',N'-dimethylaminoethyl)-1-methyl-4-{1-methyl-4-[4-(4,4-bis-(2-chloroethyl)aminobenzamido)-1-methylimidazole-2-carboxamido]imidazole-2-carboxamido}imidazole-2-carboxamide], for which the “Association constant Kapp” value at poly(dGdC) came to 495000 M⁻¹. Besides, the IC50 in the assay on KM12 (48 h, Colon Cancer KM12) stood at 0.96 µM; in the assay on KM12 (KM12, subsequent test date), 0.75 µM; in the assay with U251 (U251, subsequent test date), 0.5 µM; in the assay on EKVX (setting [1]) it was 0.88 µM; in the assay on EKVX (EKVX, subsequent test date), 1.7 µM; in the assay with XF498 (48 h, CNS Cancer XF498), 0.62 µM. Further, the IC50 in the assay on XF498 (XF498, subsequent test date) was 0.65 µM; with SF-539 (SF-539, subsequent test date), 0.59 µM.
In the case of `CN(C)CCNC(=O)c1nc(NC(=O)c2nc(NC(=O)c3ccc(N(CCCl)CCCl)cc3)cn2C)cn1C` [Compound 6, N-(N',N'-dimethylaminoethyl)-1-methyl-4-{4-[4,4-bis(2-chloroethyl)aminobenzamido]-1-methylimidazole-2-carboxamido}imidazole-2-carboxamide], at poly(dGdC), the “Association constant Kapp” value was found to be 455000 M⁻¹. For the same compound, the IC50 came to 47 µM in the assay on KM12 (48 h, Colon Cancer KM12); 31.6 µM in the assay with KM12 (KM12, subsequent test date); 6.73 µM in the assay on U251 (48 h, CNS Cancer U251); 5.8 µM in the assay with U251 (U251, subsequent test date); 47.5 µM with EKVX (setting [1]); 38 µM with EKVX (EKVX, subsequent test date). For the same compound, the IC50 in the assay on XF498 (XF498, subsequent test date) turned out to be 25.2 µM; in the assay on SF-539 (48 h, CNS Cancer SF-539), 6.97 µM; in the assay with SF-539 (SF-539, subsequent test date), 57.3 µM.

These data come from US5273991A, “Imidazole-containing compositions and methods of use thereof analogs of distamycin” (Research Corporation Technologies, Inc., priority 1992, dated 1993).
